The record followed here is US20070213359A1 (ACADIA Pharmaceuticals Inc., priority 2005, published 2007).

Sequence of Ghrelin receptor (Q92847 whole entry): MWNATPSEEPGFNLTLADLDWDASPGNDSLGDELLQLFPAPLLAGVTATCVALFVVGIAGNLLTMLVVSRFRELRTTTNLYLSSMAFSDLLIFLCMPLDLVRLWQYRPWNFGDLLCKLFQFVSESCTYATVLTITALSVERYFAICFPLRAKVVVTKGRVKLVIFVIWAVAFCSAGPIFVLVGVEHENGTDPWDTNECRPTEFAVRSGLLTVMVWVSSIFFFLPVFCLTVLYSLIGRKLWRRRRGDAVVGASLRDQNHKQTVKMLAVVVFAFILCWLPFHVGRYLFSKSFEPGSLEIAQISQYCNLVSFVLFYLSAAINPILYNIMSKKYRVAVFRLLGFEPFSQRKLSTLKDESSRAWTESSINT
T1 sequence (Q92847 whole entry): as above

One assay concerns the target T1, GHSR1a receptor (Homo sapiens, UniProt Q92847).
T1 construct: expressed in transfected cells; host or cells: HEK293 (membranes)
The assay can be described thus: 125I-Ghrelin binding assay. Conditions: displacement of 125I-ghrelin (0.053 nM), membranes of HEK293 cells transfected with GHSR1a; Cheng-Prussoff; '—' not defined; read-out: Binding pKi (converted).
On to `CC(=O)c1c(C)n(CCCN2C3CCC2CC(CC(=O)c2ccc(Cl)cc2)C3)c2c(Br)cccc12` (centres unmarked), for which the Ki was 63.1 nM.

Take `CC(=O)c1cn(CCCN2C3CCC2CC(OCC2CC2)C3)c2ccccc12` (centres unmarked): the Ki was 15800 nM.

As for `COc1cccc2c(C#N)cn(CCCN3CCC(Oc4cccc(Cl)c4)CC3)c12`, the Ki was 39.8 nM.

With `COc1ccc2c(c1)C1CCN(CCCn3cc(C(C)=O)c4ccccc43)CC1C2` (centres unmarked), the Ki is 5010 nM.

With `COC(=O)c1cn(CCCN2CCC(Oc3ccc(F)cc3)CC2)c2ccccc12`, the Ki is 3160 nM.

Take `COc1cccc2c(C#N)cn(CCCN3C4CCC3CC(Oc3ccc(F)cc3)C4)c12` (centres unmarked): the Ki is 200 nM.

Consider `COc1cccc2c(C#N)cn(CCCN3C4CCC3CC(CC(=O)c3ccc(Cl)cc3)C4)c12` (centres unmarked), for which the Ki was 79.4 nM.

In the case of `CC(=O)c1c(C)n(CCCN2C3CCC2CC(Oc2ccccc2Cl)C3)c2c(Br)cccc12` (centres unmarked), the Ki is 100 nM.

On to `COc1cccc2c(C#N)cn(CCCN3CCCC(Cc4ccccc4Cl)C3)c12` (centres unmarked), for which the Ki is 200 nM.

As for `O=C(c1cn(CCCN2C3CCC2CC(Oc2ccccc2Cl)C3)c2ncccc12)C(F)(F)F` (centres unmarked), the Ki is 251 nM.

`CC(=O)c1c(C)n(CCCN2CCCN(Cc3ccccc3Cl)CC2)c2c(Br)cccc12`: the Ki is 398 nM.

Take `COc1cccc2c(C(C)=O)cn(CC(C)CN3C4CCC3CC(CC(=O)c3ccc(Cl)cc3)C4)c12` (centres unmarked): the Ki is 398 nM.

As to `CCc1cccc2c(C(C)=O)cn(CCCN3CCC(CCOc4ccc(Cl)cc4)CC3)c12`, the Ki is 501 nM.

In the case of `O=C(CC1CC2CCC(C1)N2CCCn1cc(C(=O)C(F)(F)F)c2cccnc21)c1ccc(Cl)cc1` (centres unmarked), the Ki was 631 nM.

Take `CC(=O)c1cn(CCCN2C3CCC2CC(CCc2ccccc2)C3)c2ccccc12` (centres unmarked) [drawing 267]: the Ki is 316 nM.

With `COc1cccc2c(C(C)=O)cn(CCCN3CCC(Oc4ccc(Cl)cc4)CC3)c12` [drawing 276], the Ki is 200 nM.

Take `COc1cccc2c(C(C)=O)cn(CCCN3CCC(c4nc5ccccc5s4)CC3)c12` [drawing 280]: the Ki was 398 nM.

For the compound `COc1cccc2c(C(C)=O)cn(CCCN3CCC(Oc4ccc(Cl)cc4)CC3)c12` [drawing 300], the Ki is 126 nM.

On to `COc1cccc2c(C(C)=O)cn(CCCN3CCC(c4nc5ccccc5s4)CC3)c12` [drawing 310], for which the Ki is 158 nM.

Turning to `CCCOC1CCN(CCCn2cc(C(C)=O)c3cccc(OC)c32)CC1` [drawing 333], the Ki is 2000 nM.

`CC(=O)c1cn(CCCN2C3CCC2CC(CCc2ccccc2)C3)c2ccccc12` (centres unmarked) [drawing 433]: the Ki was 1580 nM.

`CC(=O)c1cn(CCCN2CCC(Oc3ccc(F)cc3)CC2)c2ccccc12` [drawing 551]: the Ki is 2000 nM.

On to `COc1ccccc1C1CCN(CCCn2cc(C(C)=O)c3ccccc32)CC1` [drawing 576], for which the Ki was 1260 nM.

Take `CC(=O)c1cn(CCCN2CCC(Oc3ccccc3Cl)CC2)c2ccccc12` [drawing 599]: the Ki was 2510 nM.

On to `O=C(NCc1cccc(Cl)c1)c1cn(CCCN2CCC(Oc3ccc(F)cc3)CC2)c2ccccc12` [drawing 659], for which the Ki is 1580 nM.

Another assay concerns the target Ghrelin receptor (Homo sapiens, UniProt Q92847). The assay can be described thus: Receptor Selection and Amplification Technology (R-SAT) assay. In kind it is cell-based. More on the design: expressed in transfected cells; host or cells: NIH3T3.
Conditions: not given
`O=C(NCc1cccc(Cl)c1)c1cn(CCCN2CCC(Oc3ccc(F)cc3)CC2)c2ccccc12` [drawing 659]: the “RSAT Eff(%)” value was 67%.

The assay is the same for the next values; noted with them: […]; '—' not defined (nd used separately); read-out: RSAT pIC50 (converted).
Consider `COc1cccc2c(C(C)=O)cn(CCCN3CCC(Oc4ccc(Cl)cc4)CC3)c12` [drawing 276], for which the IC50 was 5.01 nM.

As for `COc1cccc2c(C(C)=O)cn(CCCN3CCC(c4nc5ccccc5s4)CC3)c12` [drawing 310], the IC50 was 10 nM.

Still in this assay, the particulars now being: negative logarithm of ligand concentration causing 50% inhibition of constitutive receptor response; transfected NIH3T3 cells; '—' not defined (nd used separately); read-out: RSAT pIC50 (converted).
Take `CC(=O)c1c(C)n(CCCN2C3CCC2CC(CC(=O)c2ccc(Cl)cc2)C3)c2c(Br)cccc12` (centres unmarked): the IC50 is 631 nM.

As for `CC(=O)c1cn(CCCN2C3CCC2CC(OCC2CC2)C3)c2ccccc12` (centres unmarked), the IC50 is 1260 nM.

In the case of `COc1cccc2c(C#N)cn(CCCN3CCC(Oc4cccc(Cl)c4)CC3)c12`, the IC50 is 1260 nM.

As for `COc1ccc2c(c1)C1CCN(CCCn3cc(C(C)=O)c4ccccc43)CC1C2` (centres unmarked), the IC50 is 1260 nM.

In the case of `COC(=O)c1cn(CCCN2CCC(Oc3ccc(F)cc3)CC2)c2ccccc12`, the IC50 was 2000 nM.

As for `COc1cccc2c(C#N)cn(CCCN3C4CCC3CC(Oc3ccc(F)cc3)C4)c12` (centres unmarked), the IC50 is 15800 nM.

Consider `CC(=O)c1cn(CCCN2C3CCC2CC(CCc2ccccc2)C3)c2ccccc12` (centres unmarked) [drawing 267], for which the IC50 was 5.01 nM.

As to `COc1cccc2c(C(C)=O)cn(CCCN3CCC(c4nc5ccccc5s4)CC3)c12` [drawing 280], the IC50 is 6.31 nM.

Regarding `COc1cccc2c(C(C)=O)cn(CCCN3CCC(Oc4ccc(Cl)cc4)CC3)c12` [drawing 300], the IC50 is 7.94 nM.

As to `CCCOC1CCN(CCCn2cc(C(C)=O)c3cccc(OC)c32)CC1` [drawing 333], the IC50 was 15.8 nM.

`CC(=O)c1cn(CCCN2C3CCC2CC(CCc2ccccc2)C3)c2ccccc12` (centres unmarked) [drawing 433]: the IC50 was 63.1 nM.

Regarding `CC(=O)c1cn(CCCN2CCC(Oc3ccc(F)cc3)CC2)c2ccccc12` [drawing 551], the IC50 was 398 nM.

On to `COc1ccccc1C1CCN(CCCn2cc(C(C)=O)c3ccccc32)CC1` [drawing 576], for which the IC50 was 501 nM.

Still in this assay, the particulars now being: percent inhibition at saturating ligand, normalized to reference ligand Substance P analog = 100%.
For `COc1cccc2c(C(C)=O)cn(CCCN3CCC(c4nc5ccccc5s4)CC3)c12` [drawing 280], the “RSAT Eff(%)” value came to 128%.

For the compound `COc1cccc2c(C(C)=O)cn(CCCN3CCC(Oc4ccc(Cl)cc4)CC3)c12` [drawing 300], the “RSAT Eff(%)” value worked out at 129%.

Take `CC(=O)c1cn(CCCN2C3CCC2CC(CCc2ccccc2)C3)c2ccccc12` (centres unmarked) [drawing 433]: the “RSAT Eff(%)” value is 96%.

Take `CC(=O)c1cn(CCCN2CCC(Oc3ccc(F)cc3)CC2)c2ccccc12` [drawing 551]: the “RSAT Eff(%)” value worked out at 96%.

On to `COc1ccccc1C1CCN(CCCn2cc(C(C)=O)c3ccccc32)CC1` [drawing 576], for which the “RSAT Eff(%)” value stood at 106%.

For the compound `CC(=O)c1cn(CCCN2CCC(Oc3ccccc3Cl)CC2)c2ccccc12` [drawing 599], the “RSAT Eff(%)” value is 116%.

The assay is the same for the next values; noted with them: percent inhibition at saturating ligand, normalized to reference ligand Substance P analog = 100%; read-out: RSAT Eff(%).
For `CC(=O)c1c(C)n(CCCN2C3CCC2CC(CC(=O)c2ccc(Cl)cc2)C3)c2c(Br)cccc12` (centres unmarked), the Emax worked out at 64%.

In the case of `CC(=O)c1cn(CCCN2C3CCC2CC(OCC2CC2)C3)c2ccccc12` (centres unmarked), the Emax turned out to be 89%.

Turning to `COc1cccc2c(C#N)cn(CCCN3CCC(Oc4cccc(Cl)c4)CC3)c12`, the Emax worked out at 162%.

As to `COc1ccc2c(c1)C1CCN(CCCn3cc(C(C)=O)c4ccccc43)CC1C2` (centres unmarked), the Emax is 110%.

As to `COC(=O)c1cn(CCCN2CCC(Oc3ccc(F)cc3)CC2)c2ccccc12`, the Emax came out at 87%.

For `COc1cccc2c(C#N)cn(CCCN3C4CCC3CC(Oc3ccc(F)cc3)C4)c12` (centres unmarked), the Emax is 107%.

Regarding `COc1cccc2c(C#N)cn(CCCN3C4CCC3CC(CC(=O)c3ccc(Cl)cc3)C4)c12` (centres unmarked), the Emax turned out to be 12%.

Turning to `CC(=O)c1c(C)n(CCCN2C3CCC2CC(Oc2ccccc2Cl)C3)c2c(Br)cccc12` (centres unmarked), the Emax is 37%.

Consider `COc1cccc2c(C#N)cn(CCCN3CCCC(Cc4ccccc4Cl)C3)c12` (centres unmarked), for which the Emax came to 62%.

On to `O=C(c1cn(CCCN2C3CCC2CC(Oc2ccccc2Cl)C3)c2ncccc12)C(F)(F)F` (centres unmarked), for which the Emax was determined as 23%.

For the compound `CC(=O)c1c(C)n(CCCN2CCCN(Cc3ccccc3Cl)CC2)c2c(Br)cccc12`, the Emax is -14%.

For `CCc1cccc2c(C(C)=O)cn(CCCN3CCC(CCOc4ccc(Cl)cc4)CC3)c12`, the Emax was determined as 76%.

As to `O=C(CC1CC2CCC(C1)N2CCCn1cc(C(=O)C(F)(F)F)c2cccnc21)c1ccc(Cl)cc1` (centres unmarked), the Emax is 10%.

As for `CC(=O)c1cn(CCCN2C3CCC2CC(CCc2ccccc2)C3)c2ccccc12` (centres unmarked) [drawing 267], the Emax amounted to 105%.

As to `CCCOC1CCN(CCCn2cc(C(C)=O)c3cccc(OC)c32)CC1` [drawing 333], the Emax was 112%.

The assay is the same for the next values; noted with them: read-out: RSAT Eff(%).
Take `COc1cccc2c(C(C)=O)cn(CC(C)CN3C4CCC3CC(CC(=O)c3ccc(Cl)cc3)C4)c12` (centres unmarked): the Emax was found to be 16%.

In the case of `COc1cccc2c(C(C)=O)cn(CCCN3CCC(Oc4ccc(Cl)cc4)CC3)c12` [drawing 276], the Emax was 144%.

As for `COc1cccc2c(C(C)=O)cn(CCCN3CCC(c4nc5ccccc5s4)CC3)c12` [drawing 310], the Emax was found to be 102%.
